Patent publication US20080070961A1, “Polymorphs of N-(2-acetyl-4,6-dimethylphenyl)-3-{[(3,4 dimethyl-5-isoxazolyl)-amino]sulfonyl}-2-thiophene-carboxamide” (priority 2006, published 2008)
≈ marks a conversion by molar mass, not a printed value. Entries after “also recorded” stand apart in the source; their conditions may differ. Values belong to the molecule of their own block, whether it stands above or below them.

Columns and labels:
[1] = Interconversion experiments (slurries of two forms, XRPD); format: physicochemical
Method: Interconversion experiments were carried out by making slurries containing two forms of N-(2-acetyl-4,6-dimethylphenyl)-3 -{[(3,4-dimethyl-5-isoxazolyl)amino]-sulfonyl}-2-thiophenecaboxamide in saturated toluene, methanol/water, or alcohol solutions. The slurries were agitated for various time periods at either ambient temperature or at 45° C. The insoluble solids were recovered by filtration and analyzed using XRPD.

[2] = physchem; conditions: organic solvent or mixture, thermodynamic from solid, AVERAGE SOLUBILITY
Method: (§1) Saturated solutions of this compound in ethanol were prepared and each solution was heated to either 25, 27, 35, 40 or 50° C.' and stirred for 30 minutes. The samples were filtered into a receiving flask and were heated at the same temperatures and stirred for another 30 minutes. Samples were removed from these flasks and were filtered into a tared vial. The remaining solution was heated and stirred for another 30 minutes. Samples were again removed from these flasks and were filtered into another tared vial. The solvents in the tared vials were removed using a rotary evaporator and the weights of the solids in the tared vials were recorded and were used to calculate solubility.
(§2) The solubilitites reported were determined gravimetrically, therefore, fluctuations in the data are possible.

[3] = Moisture sorption/desorption; format: physicochemical; conditions: for XRPD Results after the moisture sorption/desorption experiment: sorption 5 to 95% RH, desorption 95 to 5% RH
Method: The moisture sorption/desorption data was collected on a VT SGA-100 moisture balance system. For sorption isotherms, a sorption range of 5 to 95% relative humidity (RH) and a desorption range of 95 to 5% RH in 10% RH increments were used for analysis. The sample was not dried prior to analysis. Equilibrium criteria used for analysis was less than 0.0100% weight change in 5 minutes with a maximum equilibration time of 3 hours if the weight criterion was not met. Data was not corrected for the initial moisture content of the samples.

[4] = Stress studies (humidity / temperature, XRPD); format: physicochemical
Method: Samples of N-(2-acetyl-4,6-dimethylphenyl)-3-{[(3,4-dimethyl-5-isoxazolyl)amino]-sulfonyl}-2-thiophenecaboxamide were stressed at 22, 58, 75, and 93% RH under ambient temperature for 3 days. One sample was also placed in a 40 ° C. oven for 11 days. Samples of amorphous material were also placed in a 40 ° C. oven for 36 days or in a 70 ° C. oven for 4 days. The solids were then analyzed by XRPD.

[5] = Grinding experiments (mortar and pestle, XRPD); format: physicochemical
Method: N-(2-acetyl-4,6-dimethylphenyl)-3-{[(3 ,4-dimethyl-5-isoxazolyl)amino]-sulfonyl}-2-thiophenecaboxamide material was ground by hand with a mortar and pestle for 30 sec, 1, 2, and 5 minutes. The samples were then analyzed by XRPD.

[6] = Solubility of Forms A, C and E in ethanol (gravimetric); conditions: for stability of the forms (order, based on the solubility data): ethanol solubility data; for solubility at 30 min / solubility at 60 min / AVERAGE SOLUBILITY / XRPD of remaining solid after the solubility experiment (form conversion) / relative solubility of the forms: ethanol; for solubility at 30 min / solubility at 60 min: organic solvent or mixture, thermodynamic from solid, AVERAGE SOLUBILITY; for XRPD of remaining solid after the solubility experiment (form conversion) / relative solubility of the forms: various temperatures
Method: as §1, §2

[7] = Approximate solubilities of Form A in various solvents at ambient temperature; format: physicochemical; conditions: for solubility: thermodynamic from solid, approximate
Method: The approximate solubilities were estimated from experiments based on the total solvent used to give a solution. The actual solubilities may be greater than those calculated because of the use of too-large solvent aliquots or a slow rate of dissolution. […] If the solid dissolved before the whole aliquot of solvent was added the solubility is listed as “greater than”.

- XRPD Pattern after grinding ([5]; grind time 2 min): remained Form C
- XRPD Results after slurry ([1]; ethanol, 16 days): remained the same form
- hygroscopicity (based on moisture sorption/desorption data) [3]: non-hygroscopic
- Moisture Balance Results: weight loss at 5% RH [3]: <0.1% weight loss at 5% RH,
- Moisture Balance Results: total weight gain at 95% RH [3]: <0.1% total weight gain at 95% RH
- XRPD Results after the moisture sorption/desorption experiment [3]: remained Form C
- stability of the forms (order, based on the solubility data) [6]: Form A >Form C >Form E
- solubility at 30 min ([6]; 25 °C, 30 min): 16.1 mg/mL (≈ 36 mM)
- solubility at 60 min ([6]; 25 °C, 60 min): 13.2 mg/mL (≈ 29.5 mM)
- solubility at 30 min ([6]; 40 °C, 30 min): 28.3 mg/mL (≈ 63.2 mM)
- solubility at 60 min ([6]; 40 °C, 60 min): 27.4 mg/mL (≈ 61.2 mM)
- AVERAGE SOLUBILITY ([6]; 50 °C, 30 min): 35.6 mg/mL
- AVERAGE SOLUBILITY ([6]; 50 °C, 60 min): 45.1 mg/mL
- relative solubility of the forms [6]: higher solubility than Form A
SMILES: CC(=O)c1cc(C)cc(C)c1NC(=O)c1sccc1S(=O)(=O)Nc1onc(C)c1C [Form C, N-(2-acetyl-4,6-dimethylphenyl)-3-{[(3,4dimethyl-5-isoxazolyl)-amino]sulfonyl}-2-thiophenecarboxamide]
- XRPD of remaining solid after the solubility experiment (form conversion) [6]: did not change form; also recorded: did not convert

- XRPD Results after slurry ([1]; toluene, 45° C., 5 days): A + C
SMILES: CC(=O)c1cc(C)cc(C)c1NC(=O)c1sccc1S(=O)(=O)Nc1onc(C)c1C [C vs. E]

- XRPD Pattern after grinding ([5]; grind time 2 min): C + E
SMILES: CC(=O)c1cc(C)cc(C)c1NC(=O)c1sccc1S(=O)(=O)Nc1onc(C)c1C [A(PO)]

- form after stress, all conditions of Table 10 ([4]; various conditions (22-93% RH 3 d; 40° C. 11 d)): remained Form A
- XRPD Pattern after grinding ([5]; grind time 1 min): A, SS
- crystallinity upon grinding ([5]; ground for up to 5 minutes, mortar and pestle): loses some crystallinity
- hygroscopicity (based on moisture sorption/desorption data) [3]: non-hygroscopic
- Moisture Balance Results: weight loss at 5% RH [3]: <0.1% weight loss at 5% RH,
- Moisture Balance Results: total weight gain at 95% RH [3]: <0.1% total weight gain at 95% RH
- XRPD Results after the moisture sorption/desorption experiment [3]: remained Form A
- solubility ([7]; N,N-dimethylformamide, organic solvent or mixture): 250 mg/mL (≈ 559 mM)
- solubility ([7]; acetone, organic solvent or mixture): 87 mg/mL (≈ 194 mM)
- solubility ([7]; acetonitrile, organic solvent or mixture): 72 mg/mL (≈ 161 mM)
- solubility ([7]; dichloromethane, organic solvent or mixture): 135 mg/mL (≈ 302 mM)
- solubility ([7]; diethyl ether, organic solvent or mixture): < 9 mg/mL
- solubility (in words) ([7]; diethyl other, hexanes, propanol and water): sparingly soluble
- solubility ([7]; dimethyl sulfoxide, organic solvent or mixture): 144 mg/mL (≈ 322 mM)
- solubility ([7]; ethanol, organic solvent or mixture): 9 mg/mL (≈ 20.1 mM)
- solubility ([7]; ethyl acetate, organic solvent or mixture): 21 mg/mL (≈ 46.9 mM)
- solubility ([7]; hexanes, organic solvent or mixture): < 9 mg/mL
- solubility ([7]; isopropanol, organic solvent or mixture): < 10 mg/mL
- solubility ([7]; methanol, organic solvent or mixture): 21 mg/mL (≈ 46.9 mM)
- solubility ([7]; propanol, organic solvent or mixture): < 9 mg/mL
- solubility ([7]; toluene, organic solvent or mixture): 19 mg/mL (≈ 42.5 mM)
- solubility ([7]; water): < 8 mg/mL
- stability of the forms (order, based on the solubility data) [6]: Form A >Form C >Form E
- AVERAGE SOLUBILITY ([6]; 25 °C, 30 min): 9.5 mg/mL
- AVERAGE SOLUBILITY ([6]; 25 °C, 60 min): 10.6 mg/mL
- AVERAGE SOLUBILITY ([6]; 40 °C, 30 min): 17.3 mg/mL
- AVERAGE SOLUBILITY ([6]; 40 °C, 60 min): 18.1 mg/mL
- solubility at 30 min ([6]; 50 °C, 30 min): 40.8 mg/mL (≈ 91.2 mM)
- solubility at 60 min ([6]; 50 °C, 60 min): 36.7 mg/mL (≈ 82 mM)
- XRPD of remaining solid after the solubility experiment (form conversion) [6]: conversion to another form did not occur
SMILES: CC(=O)c1cc(C)cc(C)c1NC(=O)c1sccc1S(=O)(=O)Nc1onc(C)c1C [Form A, N-(2-acetyl-4,6-dimethylphenyl)-3-{[(3,4dimethyl-5-isoxazolyl)-amino]sulfonyl}-2-thiophenecarboxamide]
- relative solubility of the forms [6]: less soluble form; also recorded: least soluble

The next lines start with the molecule.

SMILES: CC(=O)c1cc(C)cc(C)c1NC(=O)c1sccc1S(=O)(=O)Nc1onc(C)c1C [A vs. C]
- XRPD Results after slurry ([1]; 1:1 methanol:water, 12 days): A + C, SS
- XRPD Results after slurry ([1]; toluene RT, 12 days): A + C
- XRPD Results after slurry ([1]; toluene, 45° C., 5 days): A + C

SMILES: CC(=O)c1cc(C)cc(C)c1NC(=O)c1sccc1S(=O)(=O)Nc1onc(C)c1C [Form E, N-(2-acetyl-4,6-dimethylphenyl)-3-{[(3,4dimethyl-5-isoxazolyl)-amino]sulfonyl}-2-thiophenecarboxamide]
- solubility at 30 min ([2]; 27 °C): 12.7 mg/mL (≈ 28.4 mM)
- solubility at 60 min ([2]; 27 °C): 11 mg/mL (≈ 24.6 mM)
- solubility at 30 min ([2]; 35 °C): 17.7 mg/mL (≈ 39.5 mM)
- solubility at 60 min ([2]; 35 °C): 18.3 mg/mL (≈ 40.9 mM)
- solubility at 30 min ([2]; 50 °C): 40.8 mg/mL (≈ 91.2 mM)
- solubility at 60 min ([2]; 50 °C): 39.7 mg/mL (≈ 88.7 mM)
- hygroscopicity (based on moisture sorption/desorption data) [3]: non-hygroscopic
- Moisture Balance Results: weight loss at 5% RH [3]: <0.1% weight loss at 5% RH,
- Moisture Balance Results: total weight gain at 95% RH [3]: 0.15% total weight gain at 95% RH
- XRPD Results after the moisture sorption/desorption experiment [3]: remained Form E
- weight loss or gain during the moisture sorption/desorption experiment ([3]; whole experiment): < 0.2%

SMILES: CC(=O)c1cc(C)cc(C)c1NC(=O)c1sccc1S(=O)(=O)Nc1onc(C)c1C [A vs. E]
- XRPD Results after slurry ([1]; ethanol, 20 days): A + E(min)
- XRPD Results after slurry ([1]; ethanol, 27 days): A + pk 4°
- XRPD Results after slurry ([1]; toluene RT, 20 days): A, SS
- XRPD Results after slurry ([1]; toluene, 45° C., 5 days): A(PO)

SMILES: CC(=O)c1cc(C)cc(C)c1NC(=O)c1sccc1S(=O)(=O)Nc1onc(C)c1C [amorphous, N-(2-acetyl-4,6-dimethylphenyl)-3-{[(3,4dimethyl-5-isoxazolyl)-amino]sulfonyl}-2-thiophenecarboxamide]
- XRPD Pattern after stress ([4]; 40° C., 36 d): amorphous
- XRPD Pattern after stress ([4]; 70° C., 4 d): a mixture of Forms E and C
- XRPD Pattern after stress ([4]; ambient, 92 d (approx. 3 months)): Forms C and E
- Moisture Balance Results: weight loss at 5% RH [3]: <0.1% weight loss at 5% RH,
- XRPD Results after the moisture sorption/desorption experiment [3]: remained amorphous; also recorded: does not recrystallize
